Data published in article PMC5762315, “Inhibition of polo-like kinase 4 (PLK4): a new therapeutic option for rhabdoid tumors and pediatric medulloblastoma” (Oncotarget, 2017).

Key:
[1] = system: DAOY cells; assay: Combination therapy viability assay, DAOY; details: Homo sapiens, 72 h, read-out: IC50 of compound 2
[2] = system: BT-16 cells; assay: Combination therapy viability assay, BT-16; type: cell-based; details: Homo sapiens, cytotoxic drug alone, 72 hours, read-out: IC50 of compound 2
[3] = system: MON cells; assay: Combination therapy viability assay, MON; type: cell-based; details: Homo sapiens, cytotoxic drug alone, 72 hours, read-out: IC50 of compound 2

Row | Compound | IC50 [1] | IC50 [2] | IC50 [3]
1 | COc1cc([C@@H]2c3cc4c(cc3[C@@H](O[C@@H]3O[C@@H]5CO[C@@H](C)O[C@H]5[C@H](O)[C@H]3O)[C@H]3COC(=O)[C@H]23)OCO4)cc(OC)c1O [Etoposide, etoposide] | 495 nM | 800 nM | 967 nM
2 | COc1cccc2c1C(=O)c1c(O)c3c(c(O)c1C2=O)C[C@@](O)(C(=O)CO)C[C@@H]3O[C@H]1C[C@H](N)[C@H](O)[C@H](C)O1 [Doxorubicin, doxorubicin] | 263 nM | 1430 nM | 134 nM
